For this series the following is noted: instrument: DT, stepped-field.

The record followed here is the C3SDB collision cross section collection.

Values joined by “and” are separate entries in the source; they are usually repeats but may differ in a detail not shown here. Equal values may be shown once.

Turning to `OC[C@H]1O[C@@H]2O[C@H]3[C@H](O)[C@@H](O)[C@@H](O[C@H]4[C@H](O)[C@@H](O)[C@@H](O[C@H]5[C@H](O)[C@@H](O)[C@@H](O[C@H]6[C@H](O)[C@@H](O)[C@@H](O[C@H]7[C@H](O)[C@@H](O)[C@@H](O[C@H]8[C@H](O)[C@@H](O)[C@@H](O[C@H]1[C@H](O)[C@H]2O)O[C@@H]8CO)O[C@@H]7CO)O[C@@H]6CO)O[C@@H]5CO)O[C@@H]4CO)O[C@@H]3CO` [Beta-Cyclodextrin], the “collision cross section (N2)” value reads like this: ([M+H]+) 301.3 Å² and 319.6 Å²; ([M+K]+) 320.3 Å²; ([M+Na]+) 319.7 Å².

Take `CCC(C)[C@H](NC(=O)[C@H](CO)NC(=O)[C@H](C)NC(=O)[C@@H](N)CS)C(=O)N[C@@H](CCC(N)=O)C(=O)N[C@@H](CCCCN)C(=O)O` (stereo partly drawn) [CASIQK]: the “collision cross section (N2)” value ([M+H]+) was found to be 252.8 Å².

As for `CC(C)C[C@H](NC(=O)[C@H](Cc1c[nH]cn1)NC(=O)[C@@H](N)CC(=O)O)C(=O)N[C@H](C(=O)NCC(=O)N[C@@H](CCCNC(=N)N)C(=O)O)C(C)C` [DHLVGR], under “[M+H]+”, the “collision cross section (N2)” value is 249.4 Å².

Regarding `CCC(C)[C@H](NC(=O)[C@@H](N)CC(=O)O)C(=O)N[C@H](C(=O)NCC(=O)N[C@@H](C)C(=O)N[C@H](C(=O)N[C@@H](CC(C)C)C(=O)N[C@@H](CCCCN)C(=O)O)C(C)C)C(C)C` (stereo partly drawn) [DIVGAVLK], the “collision cross section (N2)” value ([M+H]+) is 291.8 Å² and 277.8 Å².

Take `N=C(N)NCCC[C@H](NC(=O)[C@H](CCC(=O)O)NC(=O)CNC(=O)[C@@H](N)Cc1ccccc1)C(=O)O` [FGER]: for the setting “[M+H]+”, the “collision cross section (N2)” value was 217.1 Å².

With `CCC(C)[C@H](NC(=O)[C@H](CCC(N)=O)NC(=O)CN)C(=O)N[C@H](C(=O)NCC(=O)N[C@@H](CCCNC(=N)N)C(=O)O)C(C)C` (stereo partly drawn) [GQIVGR], the “collision cross section (N2)” value ([M+H]+) stood at 245.5 Å².

`CCC(C)[C@H](NC(=O)[C@@H](NC(=O)CN)C(C)C)C(=O)N[C@@H](Cc1ccccc1)C(=O)N[C@@H](Cc1ccc(O)cc1)C(=O)N[C@@H](CCC(=O)O)C(=O)N[C@@H](CO)C(=O)N[C@@H](Cc1c[nH]cn1)C(=O)NCC(=O)N[C@@H](CCCCN)C(=O)O` (stereo partly drawn) [GVIFYESHGK]: the “collision cross section (N2)” value ([M+H]+) stood at 332.9 Å².

On to `CC(C)C[C@H](NC(=O)[C@@H](NC(=O)CN)C(C)C)C(=O)N[C@@H](Cc1c[nH]cn1)C(=O)N[C@@H](C)C(=O)N[C@H](C(=O)N[C@@H](CCCCN)C(=O)O)C(C)C` [GVLHAVK], for which the “collision cross section (N2)” value ([M+H]+) is given as 269.9 Å².

With `OC[C@H]1O[C@@H]2O[C@H]3[C@H](O)[C@@H](O)[C@@H](O[C@H]4[C@H](O)[C@@H](O)[C@@H](O[C@H]5[C@H](O)[C@@H](O)[C@@H](O[C@H]6[C@H](O)[C@@H](O)[C@@H](O[C@H]7[C@H](O)[C@@H](O)[C@@H](O[C@H]8[C@H](O)[C@@H](O)[C@@H](O[C@H]9[C@H](O)[C@@H](O)[C@@H](O[C@H]1[C@H](O)[C@H]2O)O[C@@H]9CO)O[C@@H]8CO)O[C@@H]7CO)O[C@@H]6CO)O[C@@H]5CO)O[C@@H]4CO)O[C@@H]3CO` [Gamma-Cyclodextrin], the “collision cross section (N2)” value ([M+Cs]+) turned out to be 338.2 Å²; the “collision cross section (N2)” value ([M+H]+) is 322.6 Å²; the “collision cross section (N2)” value ([M+K]+) came to 324.8 Å²; the “collision cross section (N2)” value ([M+Li]+) is on record as 317.7 Å²; the “collision cross section (N2)” value ([M+Na]+) amounted to 322.1 Å²; the “collision cross section (N2)” value ([M+Rb]+) is on record as 327.3 Å².

On to `CCCCCCCCCCCCC=CC[C@@H](O)[C@H](CO[C@@H]1O[C@H](CO)[C@@H](O)C(O)C1O)NC(=O)CCCCCCCCCCCCCCC` (stereo partly drawn) [GlcCer(34:1)], for which the “collision cross section (N2)” value ([M+Na]+) was determined as 277.3 Å².

As for `CCCCCCCCCCCCC=CC[C@@H](O)[C@H](CO[C@@H]1O[C@H](CO)[C@@H](O)C(O)C1O)NC(=O)CC=CCCCCCCCCCCCCCCCC` (stereo partly drawn) [GlcCer(38:2)], the “collision cross section (N2)” value ([M+Na]+) is given as 291.4 Å².

`CCCCCCCCCCCCCCCCCCCCCC(=O)N[C@@H](CO[C@@H]1O[C@H](CO)[C@@H](O)C(O)C1O)[C@H](O)CCCCCCCCCCCCCCC` (stereo partly drawn) [GlcCer(40:0)]: the “collision cross section (N2)” value ([M+Na]+) is reported as 302.3 Å².

Consider `CCCCCCCCCCCCC=CC[C@@H](O)[C@H](CO[C@@H]1O[C@H](CO)[C@@H](O)C(O)C1O)NC(=O)CC=CCCCCCCCCCCCCCCCCCCC` (stereo partly drawn) [GlcCer(41:2)], for which the “collision cross section (N2)” value ([M+Na]+) amounted to 299.6 Å².

Turning to `CCCCCCCCCCCCC=CC[C@@H](O)[C@H](CO[C@@H]1O[C@H](CO)[C@@H](O)C(O)C1O)NC(=O)CC=CCC=CCCCCCCCCCCCCCCCCC` (stereo partly drawn) [GlcCer(42:3)], the “collision cross section (N2)” value ([M+Na]+) was determined as 302.3 Å².

Turning to `CCCCCCCCCCCCC=CC[C@@H](O)[C@H](CO[C@@H]1O[C@H](CO)[C@@H](O)C(O)C1O)NC(=O)CC=CCC=CCCCCCCCCCCCCCCCCCC` (stereo partly drawn) [GlcCer(43:3)], under “[M+Na]+”, the “collision cross section (N2)” value came to 306.1 Å².

In the case of `CC(=O)NC1C(OC2C(O)C(CO)OC(OC(C(O)CO)C(O)C(O)C=O)C2O)OC(CO)C(O)C1O` (stereo not drawn) [HexNAc-(Hex)2], the “collision cross section (N2)” value by setting is: ([M+Na-H2O]+) 216.3 Å²; ([M+Na]+) 220 Å².

Take `CC(=O)NC1C(O)OC(CO)C(O)C1OC1OC(CO)C(O)C(O)C1O` (stereo not drawn) [HexNAc-Hex]: the “collision cross section (N2)” value reads like this: ([M+K]+) 191.1 Å²; ([M+Na-H2O]+) 184.3 Å²; ([M+Na]+) 190.2 Å².

Consider `OC[C@H]1O[C@H](O[C@H]2[C@H](O)[C@@H](O)[C@@H](O[C@H]3[C@H](O)[C@@H](O)[C@@H](O[C@H]4[C@H](O)[C@@H](O)[C@@H](O[C@H]5[C@H](O)[C@@H](O)[C@@H](O[C@H]6[C@H](O)[C@@H](O)[C@@H](O[C@H]7[C@H](O)[C@@H](O)[C@@H](O)O[C@@H]7CO)O[C@@H]6CO)O[C@@H]5CO)O[C@@H]4CO)O[C@@H]3CO)O[C@@H]2CO)[C@H](O)[C@@H](O)[C@@H]1O` [Maltoheptaose], for which the “collision cross section (N2)” value ([M+H]+) worked out at 303.3 Å², the “collision cross section (N2)” value ([M+K]+) stood at 303.4 Å² and the “collision cross section (N2)” value ([M+Na]+) was 303.1 Å².

Consider `OC[C@H]1O[C@H](O[C@H]2[C@H](O)[C@@H](O)[C@@H](O[C@H]3[C@H](O)[C@@H](O)[C@@H](O[C@H]4[C@H](O)[C@@H](O)C(O)O[C@@H]4CO)O[C@@H]3CO)O[C@@H]2CO)[C@H](O)[C@@H](O)[C@@H]1O` (stereo partly drawn) [Maltotetraose], for which the “collision cross section (N2)” value ([M+H]+) is reported as 238.3 Å² and the “collision cross section (N2)” value ([M+Na]+) is given as 235.3 Å².

For the molecule `OC[C@H]1O[C@H](O[C@H]2[C@H](O)[C@@H](O)[C@@H](O[C@H]3[C@H](O)[C@@H](O)[C@@H](O)O[C@@H]3CO)O[C@@H]2CO)[C@H](O)[C@@H](O)[C@@H]1O` [Maltotriose], the “collision cross section (N2)” value runs as follows: ([M+H]+) 216.3 Å²; ([M+K]+) 216.8 Å²; ([M+Na]+) 212.8 Å².

Take `CC/C=C\C/C=C\C/C=C\C/C=C\C/C=C\CCCC(=O)O[C@H](COC(=O)CCCC/C=C\C/C=C\C/C=C\C/C=C\CC)COP(=O)([O-])OCC[N+](C)(C)C` [PC(38:9)]: the “collision cross section (N2)” value ([M+Na]+) is listed as 297.8 Å².

Regarding `CCC=CCC=CCC=CCC=CCC=CCC=CCC(=O)OC[C@H](COP(=O)(O)OCC[N+](C)(C)C)OC(=O)CC=CCC=CCC=CCC=CCC=CCC=CCC` [PC(42:12)], the “collision cross section (N2)” value ([M+Na]+) is on record as 303.9 Å².

For `CCCCC=CCC=CCC=CCC(=O)OC[C@H](COP(=O)(O)OCCN)OC(=O)CC=CCC=CCC=CCCCC` [PE(28:6)], the “collision cross section (N2)” value ([M+K]+) worked out at 248.7 Å².

For the molecule `CCCC/C=C\CCCCCCCC(=O)OC[C@H](COP(=O)(O)OCCN)OC(=O)CCCCCC/C=C\C/C=C\C/C=C\CCCCC` [PE(34:4)], under “[M+Na]+”, the “collision cross section (N2)” value is reported as 273.6 Å².

Regarding `CCCCC/C=C\C/C=C\C/C=C\CCCCC(=O)OC[C@H](COP(=O)(O)OCCN)OC(=O)CCCCCCC/C=C\CCCCCCCCC` [PE(37:4)], where the note is “[M+K]+”, the “collision cross section (N2)” value came to 284.7 Å².

As for `CCCCC/C=C\C/C=C\C/C=C\C/C=C\CCCC(=O)O[C@H](COC(=O)CCCC/C=C\C/C=C\C/C=C\CCCCC)COP(=O)(O)OCCN` [PE(38:7)], the “collision cross section (N2)” value ([M+K]+) was 287 Å² and the “collision cross section (N2)” value ([M+Na]+) is given as 283.7 Å².

In the case of `CCCCC/C=C\C/C=C\CCCCCCCC(=O)O[C@H](COCCCCCCCCCCCCCCCCCC)COP(=O)(O)OCCN` [PE(o36:2)], for the setting “[M+Na]+”, the “collision cross section (N2)” value is 287.3 Å².

`CC/C=C\C/C=C\C/C=C\C/C=C\CCCCC(=O)OC[C@H](COP(=O)(O)OC[C@H](N)C(=O)O)OC(=O)CCCCC/C=C\C/C=C\C/C=C\C/C=C\CCCCC` [PS(40:8)]: for the setting “[M+Na]+”, the “collision cross section (N2)” value is 293.6 Å².

Consider `CCCCC/C=C\C/C=C\C/C=C\C/C=C\CCCCCC(=O)OC[C@H](COP(=O)(O)OC[C@H](N)C(=O)O)OC(=O)CCC/C=C\C/C=C\C/C=C\C/C=C\CCCCC` [PS(42:8)], for which the “collision cross section (N2)” value ([M+Na]+) worked out at 301.3 Å².

In the case of `CC/C=C\C/C=C\C/C=C\C/C=C\C/C=C\C/C=C\CCC(=O)O[C@H](COC(=O)CCC/C=C\C/C=C\C/C=C\C/C=C\CCCCC)COP(=O)(O)OC[C@H](N)C(=O)O` [PS(42:10)], the “collision cross section (N2)” value ([M+Na]+) stood at 297.1 Å².

`CC/C=C\C/C=C\C/C=C\C/C=C\C/C=C\C/C=C\CCC(=O)OC[C@H](COP(=O)(O)OC[C@H](N)C(=O)O)OC(=O)CCC/C=C\C/C=C\C/C=C\C/C=C\C/C=C\CC` [PS(42:11)]: the “collision cross section (N2)” value ([M+Na]+) was found to be 294.2 Å².

For the molecule `CC=CCC=CCC=CCC=CCC=CCC=CCC=CCC=CCC(=O)OC[C@H](COP(=O)(O)OC[C@H](N)C(=O)O)OC(=O)CC=CCC=CCC=CCC=CCC=CCC=CCC=CCC=CC` [PS(52:16)], the “collision cross section (N2)” value ([M+Na]+) was found to be 322.2 Å².

As for `NCCCC[C@H](NC(=O)[C@H](CC(N)=O)NC(=O)[C@H](CCC(=O)O)NC(=O)[C@@H](N)CCC(N)=O)C(=O)O` [QENK], the “collision cross section (N2)” value ([M+H]+) is reported as 219 Å².

Turning to `N=C(N)NCCC[C@H](NC(=O)CNC(=O)[C@H](CC(=O)O)NC(=O)[C@@H](N)CO)C(=O)NCC(=O)O` [SDGRG], the “collision cross section (N2)” value runs as follows: ([M+H]+) 204.6 Å²; ([M+K]+) 205.4 Å²; ([M+Na]+) 203.5 Å².

For the molecule `CCCCCCCCCCCCCCCCCCCCCC(=O)N[C@@H](COP(=O)([O-])OCC[N+](C)(C)C)[C@H](O)CCCCCCCCCCCCCCC` [SM(40:0)], the “collision cross section (N2)” value ([M+Na]+) came to 305.7 Å².
